Values quoted from earlier work as cited in patent publication US4127524A, “Novel dodecapeptides, intermediates therefor, and compositions and methods employing said dodecapeptides” (priority 1977, dated 1978).

How the values were obtained:
[1] = system: partially purified brain opiate receptor sites
[2] = system: rat; details: injected directly into the brain of the rat

H-Tyr-Gly-Gly-Phe-Met-OH [methionine enkephalin]
binding to partially purified brain opiate receptor sites [1]: binds stereo-specifically
analgesic activity [2]: only weak analgesic agent of short duration
